Patent publication US20100204247A1, “N-SUBSTITUTED OXINDOLINE DERIVATIVES AS CALCIUM CHANNEL BLOCKERS” (priority 2007, published 2010)

Target: T1, N-type calcium channel (Human Cav2.2 channels) (Homo sapiens, UniProt Q00975)
T1 construct: expressed in transfected cells
Assay: N-type calcium channel (Cav2.2) antagonist assays: fluorescent potassium depolarization assay, IonWorks and PatchXpress/manual patch clamp electrophysiology
Assay type: cell-based
Conditions: in the aforementioned assays (Assay Examples 1-3); the specific assay is not stated; read-out: IC50, antagonizing the N-type calcium channel
Excerpt: Fluorescent Assay for Cav2.2 Channels using Potassium Depolarization to Initiate Channel Opening
Human Cav2.2 channels were stably expressed in KEK293 cells along with alpha2-delta and beta subunits of voltage-gated calcium channels. An inwardly rectifying potassium channel (Kir2.3) was also expressed in these cells to allow more precise control of the cell membrane potential by extracellular potassium concentration. At low bath potassium concentration, the membrane potential is relatively negative, and is depolarized as the bath potassium concentration is raised. In this way, the bath potassium concentration can be used to regulate the voltage-dependent conformations of the channels. […]
Calcium influx through Cav2.2 channels is determined using a calcium-sensitive fluorescent dye in combination with a fluorescent plate reader. Fluorescent changes were measured with either a VIPR (Aurora Instruments) or FLIPR (Molecular Devices) plate reader.
• 1. […] Read cell plate on VIPR instrument, Excitation=480 nm, Emission=535 nm • 9. With VIPR continuously reading, add 0.1 mL (96-well plate) or 0.03 mL (384-well plate) of Depolarization Buffer, which is 2× the final assay concentration, to the cell plate. […]
Block of N-type calcium channels is evaluated utilizing the IonWorks HT 384 well automated patch clamp electrophysiology device. […]

T1 sequence (Q00975 whole entry): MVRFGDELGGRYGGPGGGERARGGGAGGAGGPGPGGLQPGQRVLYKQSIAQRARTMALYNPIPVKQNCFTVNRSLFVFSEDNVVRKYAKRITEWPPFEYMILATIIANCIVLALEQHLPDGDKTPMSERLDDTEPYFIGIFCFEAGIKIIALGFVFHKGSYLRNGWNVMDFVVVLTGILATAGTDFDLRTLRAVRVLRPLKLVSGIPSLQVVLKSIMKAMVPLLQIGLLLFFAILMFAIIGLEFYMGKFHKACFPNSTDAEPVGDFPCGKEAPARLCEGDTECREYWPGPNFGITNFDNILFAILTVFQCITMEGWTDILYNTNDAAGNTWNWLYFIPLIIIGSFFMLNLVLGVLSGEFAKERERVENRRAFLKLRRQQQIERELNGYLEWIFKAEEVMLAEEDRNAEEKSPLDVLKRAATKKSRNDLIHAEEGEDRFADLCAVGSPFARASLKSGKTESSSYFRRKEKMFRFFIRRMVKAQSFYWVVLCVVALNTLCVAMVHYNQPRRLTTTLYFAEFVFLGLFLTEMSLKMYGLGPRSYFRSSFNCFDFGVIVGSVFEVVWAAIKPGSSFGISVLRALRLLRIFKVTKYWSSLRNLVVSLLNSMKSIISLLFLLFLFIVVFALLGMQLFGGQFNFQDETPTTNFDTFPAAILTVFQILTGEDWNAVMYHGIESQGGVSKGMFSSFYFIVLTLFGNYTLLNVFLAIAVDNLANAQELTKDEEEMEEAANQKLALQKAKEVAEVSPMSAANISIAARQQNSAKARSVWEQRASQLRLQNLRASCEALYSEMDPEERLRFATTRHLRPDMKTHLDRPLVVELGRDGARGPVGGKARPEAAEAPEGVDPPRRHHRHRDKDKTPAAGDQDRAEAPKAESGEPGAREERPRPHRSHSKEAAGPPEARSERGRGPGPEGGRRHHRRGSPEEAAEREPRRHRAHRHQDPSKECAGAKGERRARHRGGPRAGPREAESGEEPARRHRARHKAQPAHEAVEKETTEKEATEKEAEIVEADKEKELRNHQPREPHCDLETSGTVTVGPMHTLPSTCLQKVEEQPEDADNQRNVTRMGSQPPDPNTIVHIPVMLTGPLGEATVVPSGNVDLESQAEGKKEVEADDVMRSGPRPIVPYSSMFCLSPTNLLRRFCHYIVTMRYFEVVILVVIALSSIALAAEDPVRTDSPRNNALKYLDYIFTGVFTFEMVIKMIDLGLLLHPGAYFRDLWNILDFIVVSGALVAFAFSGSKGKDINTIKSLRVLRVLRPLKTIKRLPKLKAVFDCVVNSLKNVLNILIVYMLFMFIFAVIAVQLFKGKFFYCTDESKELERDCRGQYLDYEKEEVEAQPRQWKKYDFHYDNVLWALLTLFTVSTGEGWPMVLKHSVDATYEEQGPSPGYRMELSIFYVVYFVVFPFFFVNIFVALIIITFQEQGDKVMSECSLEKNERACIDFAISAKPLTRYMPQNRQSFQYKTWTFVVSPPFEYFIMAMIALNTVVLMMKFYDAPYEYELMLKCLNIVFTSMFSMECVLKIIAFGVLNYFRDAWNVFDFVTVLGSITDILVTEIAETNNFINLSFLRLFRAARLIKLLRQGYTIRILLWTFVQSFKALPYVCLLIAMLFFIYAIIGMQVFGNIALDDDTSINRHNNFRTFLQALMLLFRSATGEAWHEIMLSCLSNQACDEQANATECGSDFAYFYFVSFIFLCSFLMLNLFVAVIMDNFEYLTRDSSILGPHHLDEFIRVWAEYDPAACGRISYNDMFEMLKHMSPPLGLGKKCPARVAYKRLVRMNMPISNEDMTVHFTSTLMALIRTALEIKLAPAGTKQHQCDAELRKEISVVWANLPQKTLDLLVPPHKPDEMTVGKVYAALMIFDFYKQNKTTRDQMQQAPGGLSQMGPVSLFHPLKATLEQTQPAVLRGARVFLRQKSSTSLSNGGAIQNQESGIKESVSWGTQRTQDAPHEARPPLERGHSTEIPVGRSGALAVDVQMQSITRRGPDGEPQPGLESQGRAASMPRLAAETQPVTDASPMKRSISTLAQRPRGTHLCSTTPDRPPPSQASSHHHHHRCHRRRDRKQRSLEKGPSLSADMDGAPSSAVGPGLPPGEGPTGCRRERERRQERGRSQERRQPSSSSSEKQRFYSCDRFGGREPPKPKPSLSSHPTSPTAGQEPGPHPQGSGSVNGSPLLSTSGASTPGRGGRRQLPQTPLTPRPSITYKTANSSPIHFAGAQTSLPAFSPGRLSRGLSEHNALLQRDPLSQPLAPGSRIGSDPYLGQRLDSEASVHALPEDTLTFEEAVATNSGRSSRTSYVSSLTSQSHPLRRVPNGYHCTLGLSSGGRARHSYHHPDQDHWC

IC50 | SMILES
140 nM | CC1(Cc2cncnc2)C(=O)Nc2ccc(-c3cccc(OCC(F)(F)F)c3)cc21 (centres unmarked) [Example 15, 3-methyl-3-(pyrimidin-5-ylmethyl)-5-[3-(2,2,2-trifluoroethoxy)phenyl]-1,3-dihydro-2H-indol-2-one]
590 nM | CC1(Cc2cc(F)cc(F)c2)C(=O)Nc2ccc(-c3ccc(F)cc3)cc21 (centres unmarked) [Example 12, 3-(3,5-difluorobenzyl)-5-(4-fluorophenyl)-3-methyl-1,3-dihydro-2H-indol-2-one]
